# From ChEMBL document CHEMBL1136021, “Design, synthesis, and SAR of substituted acrylamides as factor Xa inhibitors” (Bioorg Med Chem Lett, 2002)
# Tests used:
# [1] = molecular target: T1, Coagulation factor X (Homo sapiens, UniProt P00742); test: Inhibitory activity against factor Xa
# [2] = molecular target: T1, Coagulation factor X; test: Inhibitory activity against factor Xa was determined
# [3] = molecular target: T1, Coagulation factor X; test: Inhibitory activity against Coagulation factor Xa (serine protease) was determined
# [4] = molecular target: Serine protease 1 (Homo sapiens, UniProt P07477); test: Inhibitory activity against trypsin was determined
# [5] = molecular target: Prothrombin (Homo sapiens, UniProt P00734); test: Inhibitory activity against Factor IIa (serine protease) was determined
# [6] = molecular target: T1, Coagulation factor X; test: Inhibitory activity against factor Xa, activity expressed as Ki nM
# T1 sequence (P00742 41-179 limits assumed): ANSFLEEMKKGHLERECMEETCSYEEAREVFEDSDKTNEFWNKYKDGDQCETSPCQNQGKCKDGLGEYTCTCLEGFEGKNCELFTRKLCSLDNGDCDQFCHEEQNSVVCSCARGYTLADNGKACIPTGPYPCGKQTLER
# T1 sequence (P00742 235-488 limits assumed): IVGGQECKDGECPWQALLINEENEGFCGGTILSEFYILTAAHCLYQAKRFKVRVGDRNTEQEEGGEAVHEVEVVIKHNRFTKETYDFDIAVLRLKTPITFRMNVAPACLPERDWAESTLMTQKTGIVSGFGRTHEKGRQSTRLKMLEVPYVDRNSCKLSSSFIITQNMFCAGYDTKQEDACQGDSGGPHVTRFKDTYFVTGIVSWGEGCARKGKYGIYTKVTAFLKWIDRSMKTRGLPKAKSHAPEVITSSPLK
# Sequence of Serine protease 1 (P07477 whole entry): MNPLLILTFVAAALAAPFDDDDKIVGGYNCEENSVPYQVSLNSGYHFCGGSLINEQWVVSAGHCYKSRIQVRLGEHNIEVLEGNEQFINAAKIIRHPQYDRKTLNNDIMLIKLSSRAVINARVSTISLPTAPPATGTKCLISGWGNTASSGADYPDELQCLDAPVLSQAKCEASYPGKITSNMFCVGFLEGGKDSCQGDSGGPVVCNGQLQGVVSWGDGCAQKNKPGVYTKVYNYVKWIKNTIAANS
IC50 [1] [nM],Compound,further results
215,COc1ccc(C(=N)N)cc1C=CC(=O)Nc1ccc(-c2ccccc2S(N)(=O)=O)cc1,
628,N=C(N)c1cccc(C=C(C(=O)Nc2ccc(-c3ccccc3S(N)(=O)=O)cc2)c2ccncc2)c1,
234,CC(=C(CC(=O)O)C(=O)Nc1ccc(-c2ccccc2S(N)(=O)=O)cc1)c1cccc(C(=N)N)c1,
99,CC(=C(CC(N)=O)C(=O)Nc1ccc(-c2ccccc2S(N)(=O)=O)cc1)c1cccc(C(=N)N)c1,
,COC(=O)C(=Cc1cccc(C(=N)N)c1)C(=O)Nc1ccc(-c2ccccc2S(N)(=O)=O)cc1,IC50 [2]: 759 nM
5,CC(C)CC(=CC(=O)Nc1ccc(-c2ccccc2S(N)(=O)=O)cc1)c1cccc(C(=N)N)c1,
1.5,CC(=C(F)C(=O)Nc1ccc(-c2ccccc2S(N)(=O)=O)cc1F)c1ccc(F)c(C(=N)N)c1,
6470,COc1ccc(C=CC(=O)Nc2ccc(-c3ccccc3S(N)(=O)=O)cc2)cc1C(=N)N,
3.6,CC(=C(F)C(=O)Nc1ccc(-c2ccccc2S(N)(=O)=O)cc1)c1ccc(F)c(C(=N)N)c1,
15,C/C(=C(\F)C(=O)Nc1ccc(-c2ccccc2S(N)(=O)=O)cc1F)c1cc(C(=N)N)ccc1[N+](=O)[O-],
53,N=C(N)c1cccc(C(=CC(=O)Nc2ccc(-c3ccccc3S(N)(=O)=O)cc2)Cn2cnnn2)c1,
9,COCCOc1ccc(C(=N)N)cc1C=CC(=O)Nc1ccc(-c2ccccc2S(N)(=O)=O)cc1,
48,N=C(N)c1cccc(C(=CC(=O)Nc2ccc(-c3ccccc3S(N)(=O)=O)cc2)Cc2cc[nH]n2)c1,
7,CCC(=CC(=O)Nc1ccc(-c2ccccc2S(N)(=O)=O)cc1)c1cccc(C(=N)N)c1,
3.7,N=C(N)c1cccc(C(CO)=C(F)C(=O)Nc2ccc(-c3ccccc3S(N)(=O)=O)cc2)c1,
,N=C(N)c1cccc(C=CC(=O)Nc2ccc(-c3ccccc3S(N)(=O)=O)cc2)c1 [listing 1 of 2 here],IC50 [3]: 3120 nM
2.6,C/C(=C(\F)C(=O)Nc1ccc(-c2ccccc2S(N)(=O)=O)cc1F)c1cc(C(=N)N)ccc1N,
0.5,CC(=C(F)C(=O)Nc1ccc(-c2ccccc2S(N)(=O)=O)cc1Br)c1cccc(C(=N)N)c1,IC50 [4]: 189 nM; IC50 [5]: 503 nM
17,N=C(N)c1cccc(C=CC(=O)Nc2ccc(-c3ccccc3S(N)(=O)=O)cc2)c1 [listing 2 of 2 here],

IC50 [1] [nM],Compound,further results
0.74,CC(=C(F)C(=O)Nc1ccc(-c2ccccc2S(N)(=O)=O)cc1Cl)c1ccc(F)c(C(=N)N)c1,Ki [6]: 0.18 nM
362,CC(=Cc1cccc(C(=N)N)c1)C(=O)Nc1ccc(-c2ccccc2S(N)(=O)=O)cc1,
664,N=C(N)c1cccc(C=C(C(=O)Nc2ccc(-c3ccccc3S(N)(=O)=O)cc2)c2ccccn2)c1,
4,CC(=CC(=O)Nc1ccc(-c2ccccc2S(N)(=O)=O)cc1)c1cccc(C(=N)N)c1,
10,CS(=O)(=O)CC(=C(F)C(=O)Nc1ccc(-c2ccccc2S(N)(=O)=O)cc1)c1cccc(C(=N)N)c1,
191,CN(C)CC(=C(F)C(=O)Nc1ccc(-c2ccccc2S(N)(=O)=O)cc1F)c1cccc(C(=N)N)c1,
13,CCSCC(=C(F)C(=O)Nc1ccc(-c2ccccc2S(N)(=O)=O)cc1)c1cccc(C(=N)N)c1,
10,N=C(N)c1cccc(C(=CC(=O)Nc2ccc(-c3ccccc3S(N)(=O)=O)cc2)C(F)(F)F)c1,
3,N=C(N)c1cccc(C(=C(F)C(=O)Nc2ccc(-c3ccccc3S(N)(=O)=O)cc2)C(F)(F)F)c1,
184,N=C(N)c1cccc(/C(=C\C(=O)Nc2ccc(-c3ccccc3S(N)(=O)=O)cc2)c2ccco2)c1,
0.5,CC(=C(F)C(=O)Nc1ccc(-c2ccccc2S(N)(=O)=O)cc1Cl)c1cccc(C(=N)N)c1,IC50 [4]: 188 nM; IC50 [5]: 650 nM
0.2,C/C(=C(\F)C(=O)Nc1ccc(-c2ccccc2S(N)(=O)=O)cc1F)c1cccc(C(=N)N)c1,IC50 [4]: 194 nM; IC50 [5]: 2200 nM
35,CC(C)C(=CC(=O)Nc1ccc(-c2ccccc2S(N)(=O)=O)cc1)c1cccc(C(=N)N)c1,
245,N=C(N)c1cccc(C(=CC(=O)Nc2ccc(-c3ccccc3S(N)(=O)=O)cc2)Cn2ncnn2)c1,
99,N=C(N)c1cc(C=CC(=O)Nc2ccc(-c3ccccc3S(N)(=O)=O)cc2)ccc1F,
1,CC(=C(F)C(=O)Nc1ccc(-c2ccccc2S(N)(=O)=O)cc1)c1cccc(C(=N)N)c1,IC50 [4]: 259 nM; IC50 [5]: 3190 nM
7,COCC(=CC(=O)Nc1ccc(-c2ccccc2S(N)(=O)=O)cc1)c1cccc(C(=N)N)c1,
0.75,CC(=C(F)C(=O)Nc1ccc(-c2ccccc2S(N)(=O)=O)cc1Br)c1ccc(F)c(C(=N)N)c1,
18,N=C(N)c1ccc(F)c(C=CC(=O)Nc2ccc(-c3ccccc3S(N)(=O)=O)cc2)c1,
